Results as given in US7981878B2, “Tumor treatment with gliotoxin derivatives” (priority 2005, dated 2011).

Key:
[1] = tested on: 518A2 (melanoma); assay: Apoptosis flow cytometry (Annexin V / 7-AAD) 518A2; format: cell-based, human; conditions: 518A2, 200 nM gliotoxin, 24 h
Description: FIG. 10 a-b: Effects of gliotoxin on Notch2 regulation and apoptosis. The melanoma cell line 518A2 (A) and the pancreatic cancer cell line Panc-1 (B) were treated with 200 nM gliotoxin or vehicle control for 24 h Notch2 activity was analysed by band shift assay. Apoptosis was measured as annexin V and 7-AAD double positivity by FACS. Data are given as percentage of apoptotic cells ±standard deviation.
Tumour cells were seeded at a density of 50,000 cells/well in 6 well plates. 24 h after seeding, medium containing gliotoxin was added to yield desired concentrations of gliotoxin. After further 24 h cells were harvested, counted and washed twice with PBS. Then, 100,000 cells were resuspended in 100 μl binding buffer and stained with Annexin V-PE and 7-AAD (both Becton Dickinson, N.J., USA) according to manufacturer's recommendations. After 20 minutes incubation time at room temperature in the dark, 400 μl binding buffer was added and immediately analyzed on a FACScalibur flow cytometer using CellQuest software (both Becton Dickinson, N.J., USA)

[2] = tested on: 518A2 (melanoma); assay: Cell count analysis 518A2; format: cell-based, human
Description: (§1) FIG. 8 a-d: Effects of gliotoxin on cell counts of various human tumour cell lines in vitro. Cell counts of a) hepatocellular carcinoma cell lines HepG2, Huh7, SNU398, Hep3b, HeLa (cervix) and the cholangiocarcinoma cell line NEC as well as b) the pancreatic cancer cell line Panc-1 and the melanoma cell lines d) MelJuso, Meljuso-Bcl-2 (+) and 607B after 72 h treatment with 200 nM gliotoxin; c-d) Cell count dose range experiments with c) pancreatic carcinoma cell lines Panc-1 and MiaPaCa as well as melanoma cell lines MelJuso, 518A2 and 607B using 25, 50 100 and 200 nM gliotoxin for 24 h. All data are given relative to control ±standard deviation.
(§2) Tumour cells were seeded at a density of 10,000 cells/well in 24-well plates. 24 h after seeding, medium containing gliotoxin was added to yield desired concentrations of gliotoxin. At time points indicated, culture medium was removed by suction. Adherent cells were washed with DPBS (Cambrex, Verviers, Belgium) and incubated with trypsin (Gibco) at 37° C. Detached cells were transferred to test tubes containing Cellpack isotonic fluid (Sysmex Europe, Bornbarch, Germany) and counted with a Coulter Z1 electronic cell counter (Beckman Coulter, Bedford, UK).

[3] = tested on: RL-7; assay: Apoptosis FACS in leukaemia cell line RL-7; format: cell-based; conditions: RL-7, 0.2 μM gliotoxin, 24 h
Description: FIG. 7: (A) The apoptotic activity of gliotoxin on further B-CLL patient samples (CLL4-CLL8) is illustrated. The (non-Notch2-associated) leukaemia cell lines (or the leukaemia cell lines not characterised by ligand-independent Notch2 fragments) Jurkat (T-ALL), SH1 (hairy cell carcinoma), RL-7 and K562 (CML) are resistant to a treatment with 0.2 μM (corresponding to 60 ng/ml) of gliotoxin. Cells were incubated for 24 h+/−gliotoxin, and the percentage of apoptotic cells (probidium-iodide+/annexinV+) was determined by means of FACS analysis. In none of the 4 non-Notch2-associated cell lines indicated, the application of 0.2 μM of gliotoxin led to a significant induction of apoptosis within 24 hours. The cytotoxic effect of Gliotoxin correlates with the Notch2 activity in leukemias. (B) Corresponding EMSA showing the activity of Notch2 in B-CLL cells and in leukemic cell lines (Jurkat, SH1, RL7, and K562).

[4] = tested on: Nec (cholangiocellular carcinoma); assay: Cell count analysis Nec; format: cell-based, human; conditions: 200 nM gliotoxin, 72 h
Description: as §1, §2

[5] = tested on: 607B (melanoma); assay: Cell count analysis 607B; format: cell-based, human
Description: as §1, §2

[6] = tested on: mouse cell line P388; conditions: cited from earlier work

CN1C(=O)[C@]23CC4=CC=C[C@H](O)[C@H]4N2C(=O)[C@@]1(CO)SS3 [gliotoxin, [3R-(3α,5aβ,6β,10aα)]-2,3,5a,6-tetrahydro-6-hydroxy-3-(hydroxymethyl)-2-methyl-10H-3,10a-epi-dithiopyrazino[1,2-a]indol-1,4-dion]
apoptotic cells (annexin V and 7-AAD double positive) [1]: 92% | effect on cell count ([2]; 518A2, 200 nM gliotoxin, 72 h): very effective | cytotoxicity in dose range experiment (cell count) ([2]; 518A2, 25, 50, 100 and 200 nM, 24 h): clear dose dependent cytotoxicity | induction of apoptosis (probidium-iodide+/annexinV+) [3]: resistant | mean reduction of cell numbers compared to vehicle treated controls [4]: 93% | effect on cell count ([5]; 607B, 200 nM gliotoxin, 72 h): very effective | cytotoxicity in dose range experiment (cell count) ([5]; 607B, 25, 50, 100 and 200 nM, 24 h): clear dose dependent cytotoxicity | IC50 with regard to cell viability [6]: 5,8 ng/ml
